Biological target: human voltage-gated proton channel hHv1 (Homo sapiens, UniProt Q96D96)
Assay: liposome proton flux assay
Assay type: biochemical

Chain of human voltage-gated proton channel hHv1 (Q96D96 whole entry): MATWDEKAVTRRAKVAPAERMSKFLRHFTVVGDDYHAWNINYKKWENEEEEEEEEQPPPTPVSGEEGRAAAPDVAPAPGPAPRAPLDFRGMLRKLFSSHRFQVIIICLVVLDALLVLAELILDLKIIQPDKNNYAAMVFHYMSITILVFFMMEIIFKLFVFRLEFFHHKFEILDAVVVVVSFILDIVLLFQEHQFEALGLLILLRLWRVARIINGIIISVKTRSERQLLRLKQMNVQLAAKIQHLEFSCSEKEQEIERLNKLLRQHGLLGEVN

- IC50: ~ 10 % (wt/wt, to total membrane lipids)
Compound: CC(C)CCC[C@@H](C)[C@H]1CC[C@H]2[C@@H]3CC=C4C[C@@H](O)CC[C@]4(C)[C@H]3CC[C@]12C [cholesterol]
